Calls of active or inactive are those of the source.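 The calls were made as follows: active = IC50 under 10 µM in the follow-up dose response; inactive = IC50 10 µM or more, or under 40% single-dose inhibition.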

The target in this assay is Tyrosine-protein phosphatase non-receptor type 22 (Homo sapiens) (UniProt Q9Y2R2). The assay can be described thus: LYP phosphatase inhibitors, confirmation, biochemical, DiFMUP fluorescence, retest and dose response (AID 1253). Particulars: recombinant LYP; for inhibition: at 10 µM, active compounds read high.
Tyrosine-protein phosphatase non-receptor type 22 (Homo sapiens), sequence (Q9Y2R2 whole entry, looked up): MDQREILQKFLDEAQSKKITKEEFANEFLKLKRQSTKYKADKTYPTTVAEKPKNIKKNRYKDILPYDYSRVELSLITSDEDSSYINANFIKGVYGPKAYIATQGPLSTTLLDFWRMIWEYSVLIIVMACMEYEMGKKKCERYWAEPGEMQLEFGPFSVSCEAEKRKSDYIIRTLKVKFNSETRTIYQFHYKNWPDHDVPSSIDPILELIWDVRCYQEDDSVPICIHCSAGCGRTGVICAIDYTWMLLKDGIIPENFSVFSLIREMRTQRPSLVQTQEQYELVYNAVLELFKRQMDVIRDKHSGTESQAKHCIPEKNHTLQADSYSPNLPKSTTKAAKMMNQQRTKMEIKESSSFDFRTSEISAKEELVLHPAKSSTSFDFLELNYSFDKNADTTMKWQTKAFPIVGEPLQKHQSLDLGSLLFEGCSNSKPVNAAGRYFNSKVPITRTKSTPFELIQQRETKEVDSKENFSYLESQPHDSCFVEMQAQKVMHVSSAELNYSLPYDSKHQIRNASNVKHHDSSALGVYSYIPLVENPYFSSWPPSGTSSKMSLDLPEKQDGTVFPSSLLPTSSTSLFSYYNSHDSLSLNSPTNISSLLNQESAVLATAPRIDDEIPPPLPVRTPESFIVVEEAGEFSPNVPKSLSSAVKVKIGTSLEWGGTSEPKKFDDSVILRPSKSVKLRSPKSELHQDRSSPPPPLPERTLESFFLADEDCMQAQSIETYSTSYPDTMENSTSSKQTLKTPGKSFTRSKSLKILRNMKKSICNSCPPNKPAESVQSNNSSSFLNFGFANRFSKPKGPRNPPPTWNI

Regarding `C=CCNC(=S)NNC(=O)c1cccn(Cc2cccc(Cl)c2)c1=O`, the inhibition result was “inactive”. Same read-out and setting: next, `N#Cc1ccccc1CN1C(=O)S/C(=C/c2cccn2-c2cccc(C(=O)O)c2)C1=O`: “inactive”.

As for `O=C(N/N=C/c1cccc([N+](=O)[O-])c1)c1cc2c(ccc3ccccc32)o1`, the inhibition entry was “inactive”. The same measure, in the same setting: next, `Cc1ccc(C(=O)n2nc(-c3ccco3)nc2N)cc1`: “inactive”.

For the compound `Cc1ccc(C(=O)NNC(=O)CSc2nnc3c(n2)[nH]c2ccc(F)cc23)cc1`, the inhibition result was “inactive”.

For `CCOc1ccc(N2C(=O)CS/C2=C(\C(Cl)=C(Cl)Cl)[N+](=O)[O-])cc1`, the inhibition result was “inactive”. Still for that read-out and setting: next, `CCOC(=O)c1c(N2C(=O)Nc3cc(Cl)c(Cl)cc3N2O)sc2c1CCCCC2`: “inactive”. Same read-out and setting: with `Cc1c(CCOC(=O)C2C3CC4CC(C3)CC2C4)sc[n+]1CC(=O)c1ccc(Br)cc1` (centres undefined) the entry was “inactive”; with `CC(=O)Nc1nonc1NC(=O)c1ccc(C(C)(C)C)cc1`, “inactive”. The same measure, in the same setting: with `CC1CCc2c(C(=O)Nc3nccs3)csc2C1` (centres undefined) the entry was “inactive”.

Consider `O=C(CSc1nnc(-c2cccs2)n1-c1cccc(Cl)c1)c1cccc2c1OCCO2`, for which the inhibition result is “inactive”. As for `CCOC(=O)c1ccc(NC(=O)CC2NCCNC2=O)cc1` (centres undefined), the inhibition result is “inactive”. Consider `CCc1ccc2nc(NC(=O)c3ccc4c(=O)[nH]c(CN5CCOCC5)nc4c3)sc2c1`, for which the inhibition result is “inactive”. Still for that read-out and setting: with `CNC(=S)NNC(=O)c1cccn(Cc2cccc(Cl)c2)c1=O` the entry was “inactive”. Turning to `COc1cccc(OC)c1-c1nn2c(-c3cc(-c4ccccc4)n[nH]3)nnc2s1`, the IC50 (in general, the midpoint of a concentration-inhibition curve) was 4710 nM. In the case of `O=C(O)CCCCCNc1nc(=S)[nH]c2ccccc12`, the inhibition result is “inactive”. For the compound `C=CCNC(=S)NNC(=O)c1cccn(Cc2ccc(Cl)c(Cl)c2)c1=O`, the inhibition entry was “inactive”. On to `COc1ccc2nc(SCc3cnc(C)nc3N)[nH]c2c1`, for which the inhibition result is “inactive”. On to `COc1c(N2CCN(C(=S)NCc3ccccc3)C(C)C2)c(F)cc2c(=O)c(C(=O)O)cn(C3CC3)c12` (centres undefined), for which the inhibition entry was “inactive”. The same measure, in the same setting: with `CCCNc1cc(=O)n(C)c(=O)n1C` the entry was “inactive”; with `CC(C)C(CCNC(=O)CC(Cc1ccccc1)c1ccco1)c1ccco1` (centres undefined), “inactive”; with `O=C(CSc1nc2ccccc2c2nc3ccccc3n12)NCc1ccco1`, “inactive”. Same read-out and setting: with `CCOC(=O)Cc1csc(NC(=S)NC(=O)c2ccc(Cl)cc2)n1` the entry was “inactive”. Still for that read-out and setting: with `COc1ccc2c(C)cc(SCC(=O)Nc3c(C)n(C)n(-c4ccccc4)c3=O)nc2c1` the entry was “inactive”; with `Cc1cc(C)n2c(SCC(=O)N3CCN(S(=O)(=O)c4ccc(Cl)cc4)CC3)nnc2n1`, “inactive”. As for `COc1cccc(/C=N/NC(=O)c2ccc(-c3ccccc3)cc2)c1O`, the inhibition result is “inactive”. On the same count and under the same terms, next, `Clc1ccc(C2=Nn3c(nnc3-c3cc(-c4ccccc4)n[nH]3)SC2)cc1`: “inactive”; `COC(=O)c1sccc1-n1cccc1C(=O)N1CCOCC1`: “inactive”. As for `O=C(O)CCN1C(=O)/C(=C/c2ccc(-c3nc4ccccc4s3)o2)SC1=S`, the IC50 was 1450 nM. Consider `Nc1nnnn1/N=C/c1ccccc1C(F)(F)F`, for which the inhibition entry is “inactive”.

As for `O=C(N/N=C/c1ccncc1)c1cc([N+](=O)[O-])cc([N+](=O)[O-])c1O`, the inhibition entry was “inactive”. Take `O=C(O)CCCN1C(=O)/C(=C/c2ccc(-c3nc4ccccc4s3)o2)SC1=S`: the IC50 was 1130 nM. Turning to `COc1ccccc1/C=C\C=N\n1c(C2CCCCC2)n[nH]c1=S`, the inhibition entry was “inactive”. The same measure, in the same setting: with `CCOC(=O)CC(=O)CSc1nc2c(C)c(C)ccc2cc1C` the entry was “inactive”; with `O=C(CCN1C(=O)c2ccccc2C1=O)Oc1ccc2ccccc2c1`, “inactive”. On to `COc1ccc(S(=O)(=O)N2CC3CCCN3c3cc(C(F)(F)F)ccc32)cc1` (centres undefined), for which the inhibition result is “inactive”. Consider `Cc1nn(-c2ccccc2)c(C)c1/C=N/NC(=O)c1cc(C23CC4CC(CC(C4)C2)C3)[nH]n1`, for which the inhibition entry is “inactive”. On to `CCOc1ccc(N(CC(=O)Nc2ccccc2C(=O)NCc2ccco2)S(C)(=O)=O)cc1`, for which the inhibition entry is “inactive”. Same read-out and setting: with `O=C(Nc1ccc2oc(-c3cccc4ccccc34)nc2c1)c1ncn[nH]1` the entry was “inactive”; with `Cc1ccc(CSc2nnc(-c3ccccc3N)c(=O)[nH]2)cc1`, “inactive”; with `N#CC(c1cccc(C(F)(F)F)c1)(c1ncc(C(F)(F)F)cc1Cl)N1CCOCC1` (centres undefined), “inactive”. For the compound `COc1cc(-c2nnc(SCc3cc(=O)oc4cc(O)c(O)cc34)o2)cc(OC)c1OC`, the IC50 is 2600 nM. Consider `CCOc1ccccc1NC(=O)CN(c1ccc(C)cc1)S(=O)(=O)c1c(C)noc1C`, for which the inhibition entry was “inactive”. As to `O=[N+]([O-])c1cc(/C=N\Nc2nccs2)ccc1O`, the IC50 is 4060 nM.

In the case of `O=C(CN(C(=O)CNC(=O)c1ccco1)c1ccc2c(c1)OCO2)NC1CCCCC1`, the inhibition result is “inactive”. For `CCOC(=O)C1=C(C)OC(N)=C(C#N)C1c1c(C)nn(-c2ccc(C)cc2)c1Cl` (centres undefined), the inhibition result was “inactive”. Still for that read-out and setting: next, `CCn1c(CSc2nc3ccccc3s2)nnc1SCC(=O)c1ccc(O)c(O)c1`: “inactive”; `CCN(CC)CCCNC(=O)c1c(O)c2ccccc2n(Cc2ccccc2)c1=O`: “inactive”; `O=c1c(-c2nnc(SCc3ccc(Cl)cc3Cl)o2)cccn1Cc1ccccc1`: “inactive”. Still for that read-out and setting: with `CCCCN(C(=O)CSc1nnc(Nc2ccc(C)c(C)c2)s1)c1c(N)n(Cc2ccccc2)c(=O)[nH]c1=O` the entry was “inactive”; with `Cc1cc(C)n2nc(SCc3cc(=O)oc4cc(O)ccc34)nc2n1`, “inactive”. The same measure, in the same setting: with `CCCC1COC(Cn2cncn2)(c2ccc(Cl)cc2Cl)O1` (centres undefined) the entry was “inactive”; with `COc1ccc(CN2CCN(C(=O)c3ccco3)CC2)cc1`, “inactive”. `COCc1cc(C)nc(Nc2ccccc2C)c1C#N`: the inhibition result is “inactive”. With `COc1cnc(-c2ccccn2)nc1Sc1ccc(Cl)cc1`, the inhibition result is “inactive”. Still for that read-out and setting: next, `O=C(Nc1ccc(N2CCCCC2)c(Cl)c1)c1ccc2c(c1)OCCO2`: “inactive”. On the same count and under the same terms, next, `Cc1ccc2c(Cl)cc(Cl)c(OCC(=O)NCc3ccco3)c2n1`: “inactive”. Turning to `Nc1c(C(=O)Nc2nc3ccccc3s2)sc2nc(-c3cccs3)ccc12`, the IC50 was 1240 nM. In the case of `Cc1nc(NC(=O)CC(C)C)sc1-c1csc(Nc2ccc(Cl)cc2)n1`, the inhibition entry was “inactive”. On the same count and under the same terms, next, `CCCCCCc1cc2cc(-c3nnc(-c4ccccc4OC)o3)c(=O)oc2cc1O`: “inactive”; `O=C(CSc1nc2ccc(S(=O)(=O)N3CCOCC3)cc2[nH]1)N1CCOCC1`: “inactive”.

Consider `Cc1ccc(NC(=O)CN2C(=O)S/C(=C\c3ccc(-c4cccc(C(=O)O)c4C)o3)C2=O)cc1`, for which the inhibition entry was “inactive”.

Take `Cc1cc(-c2c(C)[nH]n(-c3ccc(Cl)cc3)c2=O)n[nH]1`: the IC50 is > 10000 nM (inactive). Take `Cc1ccc(NC(=O)CN2C(=O)S/C(=C/c3ccc(-c4cc(C(=O)O)ccc4C)o3)C2=O)cc1C`: the inhibition result is “inactive”.

The record behind these values is PubChem BioAssay AID1253 (Columbia University Molecular Screening Center, 2008).
